Experimental data from BindingDB's records for doi:10.7270/Q2Q52NH6 (Catholic University of Daegu, 2017).

How the values were obtained:
[1] = target: T1, Tyrosine-protein phosphatase non-receptor type 1 (Homo sapiens, UniProt P18031); test: PTP1B Inhibitory Assay; details: pH 6
T1 sequence (P18031 whole entry): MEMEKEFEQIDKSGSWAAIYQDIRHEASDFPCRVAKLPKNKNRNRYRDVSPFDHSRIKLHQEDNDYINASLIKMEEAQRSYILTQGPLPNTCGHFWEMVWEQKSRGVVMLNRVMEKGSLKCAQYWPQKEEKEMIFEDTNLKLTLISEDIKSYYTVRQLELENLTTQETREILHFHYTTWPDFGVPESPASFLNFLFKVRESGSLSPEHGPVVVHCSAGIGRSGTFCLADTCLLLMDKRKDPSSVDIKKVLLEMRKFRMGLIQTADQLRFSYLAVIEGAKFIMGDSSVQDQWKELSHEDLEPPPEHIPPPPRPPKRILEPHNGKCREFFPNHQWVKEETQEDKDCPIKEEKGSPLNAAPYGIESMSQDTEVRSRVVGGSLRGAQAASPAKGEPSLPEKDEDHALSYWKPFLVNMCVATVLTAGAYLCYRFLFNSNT
Procedure: PTP1B activity was measured by adding 2mM p-NPP and PTP1B in a 50 mM citrate buffer (pH 6.0, 0.1 M NaCl, 1 mMEDTA, and 1 mM dithiothreitol), with or without tested compounds. The plate was pre-incubated at 37 °C for 10 min, and then 50 μL of p-NPP in buffer was added. After incubating at 37 °C for 30 min, the reaction was then terminated with 1 N NaOH.

[2] = target: Acetylcholinesterase (Homo sapiens, UniProt P22303); test: Acetylcholinesterase Inhibitory Assay; details: pH 8; 25 °C
Procedure: Briefly, 140 μL of sodium phosphate buffer (pH 8.0), 20 μL of each tested compound with different concentrations (4, 20, and 100 μM) and 20 μL enzyme solution were mixed and incubated at room temperature for 15 min. The reactions were initiated by the addition of 10 μL of 0.01 M 5,5'-dithiobis(2-nitrobenzoic acid) (DTNB) and 10 μL of 0.075 ATCI. […] The reaction was independently experimented for three times and recorded in 96-well microplates using a microplate reader (VersaMax).

[3] = target: T1, Tyrosine-protein phosphatase non-receptor type 1; test: Kinetic Analysis
Procedure: The reaction mixtures contained in various different concentrations of p-NPP as a PTP1B substrate in the presence or absence of the active compound. The kinetic analysis was evaluated for Michaelis-Menten plot, Lineweaver-Burk plot, and Dixon plot. The Michaelis constant (Km), maximum velocity (Vmax), and the inhibition constants (Ki) were determined by using Sigma Plot software (13.0 software, SPCC Inc., Chicago, IL, USA).

Acetylcholinesterase, sequence (P22303 whole entry): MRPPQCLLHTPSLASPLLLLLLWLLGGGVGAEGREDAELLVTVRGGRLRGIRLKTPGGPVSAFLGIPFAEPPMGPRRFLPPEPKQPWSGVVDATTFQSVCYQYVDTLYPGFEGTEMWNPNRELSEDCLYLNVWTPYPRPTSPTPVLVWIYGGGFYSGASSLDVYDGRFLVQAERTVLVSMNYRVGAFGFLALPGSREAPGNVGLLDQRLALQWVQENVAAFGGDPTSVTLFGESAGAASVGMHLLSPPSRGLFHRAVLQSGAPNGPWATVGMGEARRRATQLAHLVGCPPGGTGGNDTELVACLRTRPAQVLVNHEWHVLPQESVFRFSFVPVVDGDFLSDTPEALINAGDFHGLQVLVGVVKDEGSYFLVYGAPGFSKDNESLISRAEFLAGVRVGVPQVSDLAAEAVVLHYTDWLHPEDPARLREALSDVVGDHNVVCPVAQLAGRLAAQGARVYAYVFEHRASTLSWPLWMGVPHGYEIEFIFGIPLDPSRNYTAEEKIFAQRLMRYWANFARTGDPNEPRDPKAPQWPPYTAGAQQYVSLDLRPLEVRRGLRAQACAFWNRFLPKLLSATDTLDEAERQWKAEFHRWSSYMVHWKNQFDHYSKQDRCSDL

Structure (SMILES)	IC50 [1]	IC50 [2]	Ki [3]
O=C(OCCCCOc1cc(O)c2c(=O)cc(-c3ccc(O)c(O)c3)oc2c1)[C@H]1O[C@@H](O)[C@H](O)[C@@H](O)[C@@H]1O [Luteolin 7-O-β-D-glucuronide butyl ester (16)]	100 µM	76.9 µM	–
O=c1cc(-c2ccc(O)c(O[C@@H]3O[C@H](CO)[C@@H](O)[C@H](O)[C@H]3O)c2)oc2cc(O)cc(O)c12 [Luteolin 3'-O-β-D-glucoside (17)]	100 µM	74.6 µM	–
O=c1cc(-c2ccc(O)cc2)oc2cc(O[C@@H]3O[C@H](CO)[C@@H](O)[C@H](O)[C@H]3O)cc(O)c12 [NSC-407303]	100 µM	100 µM	–
O=c1c(O)c(-c2ccc(O)cc2)oc2cc(O[C@@H]3O[C@H](CO)[C@@H](O)[C@H](O)[C@H]3O)cc(O)c12 [Kaempferol 7-O-β-D-glucoside (4)]	100 µM	63.9 µM	–
COC(=O)[C@H]1O[C@@H](Oc2cc(O)c3c(=O)cc(-c4ccc(O)cc4)oc3c2)C(O[C@@H]2OC(CO)[C@@H](O)C(O)[C@@H]2O)[C@H]1O (some centres not stated) [Agriflavone (2)]	100 µM	63.4 µM	–
O=C(O)[C@H]1O[C@@H](Oc2cc(O)c3c(=O)cc(-c4ccc(O)c(O)c4)oc3c2)[C@H](O)[C@@H](O)[C@@H]1O [Luteolin 7-O-β-D-glucuronide (14)]	38.1 µM	88.1 µM	–
O=c1cc(-c2ccc(O)c(O)c2)oc2cc(O[C@@H]3O[C@H](CO)[C@@H](O)[C@H](O)[C@H]3O)cc(O)c12	71.6 µM	74.7 µM	–
O=c1c(O)c(-c2ccc(O)c(O)c2)oc2cc(O)cc(O)c12 [2-(3,4-dihydroxyphenyl)-3,5,7-trihydroxy-chromone;hydrate]	–	72.8 µM	–
O=C(O)[C@H]1O[C@@H](Oc2cc(O)c3c(=O)cc(-c4ccc(O)cc4)oc3c2)[C@H](O)[C@@H](O)[C@@H]1O [apigenin-7-O-betaD-glucuronic acid]	7.14 µM	63 µM	2.6 µM
O=c1oc2c(O)c(O)cc3c(=O)oc4c(O)c(O)cc1c4c23 [Elagic Acid]	7.73 µM	100 µM	2.8 µM
COc1cc(C2Oc3c(OC)cc(CCCO)cc3C2CO)ccc1O[C@@H]1OC(CO)[C@@H](O)C(O)[C@@H]1O (stereo partly drawn) [dihydrodehydrodiconifeyl alcohol 9'-O-β-D-glucose (19)]	100 µM	92.8 µM	–
O=c1c(O[C@@H]2O[C@H](CO)[C@@H](O)[C@H](O)[C@H]2O)c(-c2ccc(O)cc2)oc2cc(O)cc(O)c12 [Kaempferol 3-O-β-D-glucoside (6)]	60.7 µM	89.6 µM	–
O=C(O)[C@H]1O[C@@H](Oc2cc(O)c3c(=O)c(O)c(-c4ccc(O)cc4)oc3c2)[C@H](O)[C@@H](O)[C@@H]1O [Kaempferol 7-O-β-D-glucuronide (5)]	48.3 µM	64 µM	–
O=C(OCOc1cc(O)c2c(=O)cc(-c3ccc(O)c(O)c3)oc2c1)[C@H]1O[C@@H](O)[C@H](O)[C@@H](O)[C@@H]1O [Luteolin 7-O-β-D-glucuronide methyl ester (15)]	49.1 µM	65.9 µM	–
O=C(O[C@H]1OC(CO)[C@@H](O)[C@@H]2OC(=O)c3cc(O)c(O)c(c3O)-c3c(O)c(O)cc(c3O)C(=O)OC12)c1cc(O)c(O)c(O)c1 (some centres not stated) [Agritannin (1)]	17 µM	60.2 µM	–
O=c1c(O[C@@H]2O[C@H](CO)[C@@H](O)[C@H](O)[C@H]2O)c(-c2ccc(O)c(O)c2)oc2cc(O)cc(O)c12 [2-(3,4-dihydroxyphenyl)-5,7-dihydroxy-3-[(2S,3R,4S,5S,6R)-3,4,5-trihydroxy-6-(hydroxymethyl)oxan-2-yl]oxychromen-4-one]	100 µM	84.8 µM	–
O=c1c(O)c(-c2ccc(O)c(O[C@@H]3O[C@H](CO)[C@@H](O)[C@H](O)[C@H]3O)c2)oc2cc(O)cc(O)c12 [Quercetin 3'-O-β-D-glucoside (12)]	100 µM	89.2 µM	–
O=c1cc(-c2ccc(O)cc2)oc2cc(O)cc(O)c12 [Naringenin, 18]	100 µM	64.3 µM	–
